In a compilation of properties of binary mixtures (doi:10.1016/j.jct.2017.07.022):

Experiment: xn = mol fraction of the nth substance listed
Conditions: 100 kPa

CC[n+]1ccccc1.N#C[N-]C#N + CC(C)O
viscosity [mPa·s]
Conditions	x2 = 0	x2 = 0.1055	x2 = 0.1999	x2 = 0.2997	x2 = 0.4023	x2 = 0.499	x2 = 0.5998	x2 = 0.7006	x2 = 0.8007	x2 = 0.8997
288.15 K	25.9	21.3	18.3	–	12.3	10	8.04	6.15	4.78	3.75
293.15 K	22.1	–	15.6	12.9	10.7	8.68	7.02	5.39	4.18	3.28
298.15 K	18.9	15.6	13.4	11.2	–	7.61	6.19	4.77	3.7	2.89
303.15 K	16.4	13.5	11.6	9.83	8.17	6.72	–	4.24	3.29	2.55
308.15 K	14.3	11.7	10.1	8.69	7.24	6	4.91	–	2.95	–
313.15 K	–	10.3	8.9	7.72	6.47	5.38	–	–	–	2.03
318.15 K	11	9.08	7.9	6.92	5.82	4.85	–	–	2.41	1.83

CC[n+]1ccccc1.N#C[N-]C#N + CCCO
viscosity [mPa·s]
Conditions	x2 = 0	x2 = 0.1095	x2 = 0.1947	x2 = 0.3011	x2 = 0.4029	x2 = 0.5008	x2 = 0.6003	x2 = 0.702	x2 = 0.8012	x2 = 0.9
288.15 K	25.9	–	–	15.2	12	9.7	7.73	5.99	–	3.48
293.15 K	–	17.7	15.3	–	10.4	8.45	6.78	5.28	–	3.09
298.15 K	18.9	15.3	13.1	11.7	9.11	–	6	4.7	3.61	–
303.15 K	16.4	13.2	11.3	10.3	–	6.6	5.34	–	3.24	2.48
308.15 K	14.3	11.4	–	9.11	7.14	–	4.79	3.78	–	–
313.15 K	12.5	9.9	–	8.13	6.39	–	4.33	3.42	2.65	2.03
318.15 K	–	8.74	7.85	7.35	5.76	–	3.93	–	2.42	–

CC[n+]1ccccc1.N#C[N-]C#N + CCO
viscosity [mPa·s]
Conditions	x2 = 0	x2 = 0.1008	x2 = 0.1974	x2 = 0.3008	x2 = 0.3994	x2 = 0.5058	x2 = 0.5994	x2 = 0.6996	x2 = 0.7999	x2 = 0.9011
288.15 K	–	–	16.8	13.4	10.5	7.99	6.13	4.66	3.05	2.24
293.15 K	22.1	–	14.4	11.7	9.23	7.07	5.46	4.22	2.78	2.02
298.15 K	–	15.4	–	–	8.19	6.31	4.91	3.85	–	1.86
303.15 K	16.4	13.3	10.9	9.23	7.34	5.69	4.47	3.49	2.31	–
308.15 K	14.3	11.5	9.58	8.28	6.61	–	4.08	3.19	2.12	1.55
313.15 K	12.5	10.1	8.51	7.45	–	–	–	–	1.94	1.42
318.15 K	11	–	7.62	6.74	–	4.31	3.44	2.68	1.79	1.31

CC(C)O + CC[n+]1ccccc1.N#C[N-]C#N
x1 = 1
Conditions	viscosity [mPa·s]
288.15 K	2.83
293.15 K	2.42
298.15 K	2.08
303.15 K	1.8
308.15 K	1.56
313.15 K	1.33
318.15 K	1.17

CCCO + CC[n+]1ccccc1.N#C[N-]C#N
x1 = 1
Conditions	viscosity [mPa·s]
293.15 K	2.22
298.15 K	1.97
303.15 K	1.75
308.15 K	1.56
313.15 K	1.36
318.15 K	1.23

CCO + CC[n+]1ccccc1.N#C[N-]C#N
x1 = 1
Conditions	viscosity [mPa·s]
293.15 K	1.17
298.15 K	1.07
303.15 K	0.975
308.15 K	0.89
313.15 K	0.815
318.15 K	0.747
